Experimental data as given in PMC6895180 (Nature Communications, 2019).
Values joined by “and” are separate entries in the source; they are usually repeats but may differ in a detail not shown here. Equal entries are not always repeated. Where two headings read alike, the source gives them in different places. Marks after values point to notes of the source that are not given here.

How the values were obtained:
T. brucei ADKIN = target: T1, T. brucei ADKIN (Trypanosoma brucei brucei, UniProt Q584S6); assay: ADKIN assay (phosphorylation by purified recombinant enzyme, HPLC); assay type: biochemical
T1 sequence (Q584S6 1-345): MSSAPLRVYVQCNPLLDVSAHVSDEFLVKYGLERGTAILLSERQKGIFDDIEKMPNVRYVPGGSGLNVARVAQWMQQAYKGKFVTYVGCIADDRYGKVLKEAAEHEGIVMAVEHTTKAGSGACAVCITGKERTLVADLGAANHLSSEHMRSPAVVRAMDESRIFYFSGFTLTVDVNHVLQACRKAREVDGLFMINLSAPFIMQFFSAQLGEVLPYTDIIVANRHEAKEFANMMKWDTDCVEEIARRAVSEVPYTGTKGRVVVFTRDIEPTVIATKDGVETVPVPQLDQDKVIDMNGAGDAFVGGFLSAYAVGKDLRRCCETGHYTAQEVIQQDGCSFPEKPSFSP
Description: The T. brucei ADKIN enzyme was diluted in a buffer containing 0.05% (v/v) Tween-20, 50 mM KCl, 0.1 mM dithiothreitol, and 50 mM Tris-HCl, pH 7.5 (dilution buffer), prior to use in the assay. The final assay mixture contained 12.5 ng T. brucei ADKIN, a range between 50 and 1000 µM of nucleoside 9 (or 1000 µM deoxyadenosine in the control reaction), 100 mM KCl, 10 mM MgCl2, 0.5 mM ATP, 5 mM potassium phosphate and 50 mM Tris-HCl, pH 7.5. The assay was incubated at 37 °C for 30 min, and subsequently heated for 2 min at 100 °C to inactivate the enzyme, diluted with 2 volumes of water, centrifuged through a Nanosep 3k Omega filter and mixed 1:1:2 with water and mobile phase. The HPLC analysis was performed on a 2.1 × 150 mm ACE Excel C18 column using a mobile phase composition 4A:76B:20C (see nucleotide pool analysis, Supplementary Information for details). Using these conditions, consecutive samples could be loaded (Supplementary Fig. 12). After 4–5 samples, the column was washed with high percent A (80A:20C) to remove bound ADP and ATP before re-equilibrating the column to original conditions.

[1] = tested on: B48: pentamidine, diminazene and melaminophenyl arsenical resistant T. brucei line; assay: microbe, parasite or virus in culture; assay type: cell-based, Trypanosoma brucei brucei
[2] = Cytotoxicity on MRC-5 fibroblasts (resazurin); assay type: cell-based, human; conditions: human, MRC-5SV2 human embryonic lung fibroblasts
Description: Cytotoxicity assays were performed on MRC-5SV2 (Sigma-Aldrich/ECACC, catalogue number 84100401) human embryonic lung fibroblasts, which were cultured in minimum essential medium with Earle’s salt medium, supplemented with L-glutamine, NaHCO3 and 5% inactivated foetal calf serum. All cultures and assays were conducted at 37 °C with 5% CO2. Ten microliters of the aqueous compound dilutions were added to 190 µL of MRC-5SV2 (3 × 10^4 cells mL^−1). Cell growth was compared to untreated control wells (100% cell growth) and medium control wells (0% cell growth). After a 3-day incubation, cell viability was assessed fluorimetrically after the addition of 50 μL resazurin per well (final concentration of 10 µg mL^−1). After 4 h at 37 °C, fluorescence was measured (λex 550 nm, λem 590 nm). The results were expressed as percentage reduction in cell growth/viability compared to control wells and an EC50 was determined.

T. brucei Squib 427 = assay: microbe, parasite or virus in culture; assay type: cell-based, Trypanosoma brucei brucei
Description: (§1) Drug susceptibility tests with Lister 427WT, TbAT1-KO[48], B48[26] and ISMR1[27] were performed using an assay based on the viability indicator dye resazurin in 96-well plates, each well containing 2 × 10^4 cells. The plates were incubated for 48 h with a doubling dilution series of the test compounds in HMI-9/fetal bovine serum at 37 °C/5% CO2 (23 dilutions starting at 100 µM, except for the pentamidine control (50 µM)), after which resazurin (20 µL of 125 µg mL^−1 resazurin sodium salt solution was added to each well (containing 200 µL of cells and test compound)) was added to each well and the plates incubated for another 24 h. Fluorescence was determined using a FLUOstar Optima (BMG Labtech, Durham, NC) and the results fitted to a sigmoid curve with variable slope using Prism 5.0 or Prism 7.04 (GraphPad, San Diego, CA).
(§2) Susceptibility assays with T. brucei Squib 427[49] or T. b. rhodesiense STIB-900[50] were performed under similar conditions as above, but using 10 concentrations of a 4-fold compound dilution series starting at 64 µM. Trypanosoma brucei Squib 427 was seeded at 1.5 × 10^4 parasites/well and T. b. rhodesiense at 4 × 10^3 parasites per well, followed by the addition of resazurin (final concentration of 10 µg mL^−1) after 24 h (T. brucei) or 6 h (T. b. rhodesiense).

[3] = tested on: T. b. rhodesiense STIB-900; assay: microbe, parasite or virus in culture; assay type: cell-based, Trypanosoma brucei rhodesiense; conditions: Trypanosoma brucei, RHODESIENSE
Description: as §1, §2

[4] = tested on: ISMR1: isometamidium-resistant T. brucei cell line; assay: microbe, parasite or virus in culture; assay type: cell-based, Trypanosoma brucei brucei
Description: as §1

[5] = tested on: TbAT1-KO: T. brucei cell line lacking the TbAT1(P2) transporter gene; assay: microbe, parasite or virus in culture; assay type: cell-based, Trypanosoma brucei brucei
Description: as §1

[6] = tested on: T. b. brucei Lister 427WT; assay: Drug susceptibility test (resazurin), Lister 427WT; assay type: cell-based, Trypanosoma brucei brucei
Description: as §1

[7] = Metabolic stability, pooled human liver microsomes (phase I and II)
Description: (§3) Mouse, rat, and pooled human liver microsomes were purchased from a commercial source (Corning) and stored at -80 °C. NADPH generating system solutions A and B and UGT reaction mix solutions A and B (Corning) were kept at -20°C. The test compound and the reference compounds diclofenac (MW […]
(§4) microsomal stability assay was carried out based on the BD Biosciences Guidelines for Use (TF000017 Rev1.0) with minor adaptations. Metabolic stability of the compounds was studied through the CYP450 superfamily (phase I metabolism) by fortification with reduced nicotinamide adenine dinucleotide phosphate (NADPH) and through uridine glucuronosyl-transferase (UGT) enzymes (phase II metabolism) by fortification with uridine diphosphate glucuronic acid (UDPGA). For the CYP450 and other NADPH dependent enzymes, both compounds were incubated at 5 µM together with 0.5 mg mL-1 liver microsomes in potassium phosphate buffer in a reaction started by the addition of 1 mM NADPH […]
(§5) At these time points, 20 µL was withdrawn from the reaction mixture and 80 µL cold acetonitrile (ACN) containing the internal standard tolbutamide, was added to inactivate the enzymes and precipitate the proteins. The mixture was vortexed for 30 s and centrifuged at 4 °C for 5 min at 15,000 rpm. The supernatant was stored at -80°C until analysis. For the UGT enzymes, both compounds were incubated at 5 µM together with 0.5 mg mL-1 liver microsomes in a reaction started by the addition of 2 mM UDPGA cofactor. The corresponding loss of parent compound was determined using liquid chromatography (UPLC) (Waters AquityTM) coupled with tandem quadrupole mass spectrometry (MS²) (Waters XevoTM), equipped with an electrospray ionization (ESI) interface and operated in multiple reaction monitoring (MRM) mode. […]

[8] = Metabolic stability, mouse liver microsomes (phase I and II)
Description: as §3, §4, §5

[9] = Metabolic stability, rat liver microsomes (phase I and II)
Description: as §3, §4, §5

P1 transporter = assay type: cell-based, Trypanosoma brucei; conditions: mean ± SEM, n = 3
Description: Non-specific association of radiolabel with the cell pellet was determined using an identical incubation in the presence of saturating (1 mM) unlabelled adenosine.

[10] = resistance factor vs Lister 427WT

Nc1ncnc2c1ncn2[C@H]1C[C@H](O)[C@@H](CO)O1 [dAdo, 2′-deoxyadenosine, reference compound]
product concentration (Conc.9-MP) (T. brucei ADKIN; TbAK control reaction, [dAdo] 1000 µM): 34.4568 and 29.4118 and 31.8858
Act (U/mg) (T. brucei ADKIN; TbAK, substrate 1000 µM): 4.594 U/mg and 3.922 U/mg and 4.251 U/mg

Nc1ncnc2c1ccn2[C@H]1C[C@H](O)[C@@H](CO)O1 [Compound 11, 2′-Deoxy-TUB]
EC50 ([1]; Trypanosoma brucei, mean and SEM, n = 3, read-out: B48 EC50): 41.8 ± 1.4 µM
EC50 ([1]; Trypanosoma brucei, source data, read-out: B48 EC50, single determinations): 40.3 µM
RF (B48) [1, 10]: 0.43**
EC50 ([1]; source data, read-out: B48 EC50, single determinations): 43.2 µM and 40.8 µM
EC50 at 3 day ([2]; cytotoxicity in human MRC-5 fibroblasts, mean and SEM, read-out: MRC-5 EC50): > 64 µM
EC50 at 3 day ([2]; source data, read-out: MRC-5 EC50, single measurements): > 64 µM
EC50 (T. brucei Squib 427; Trypanosoma brucei, Alamar blue cell viability assay, mean and SEM, read-out: T. b. brucei EC50): 48 ± 1 µM
EC50 (T. brucei Squib 427; Trypanosoma brucei, source data, read-out: T. brucei brucei EC50, Average): 48.5 µM
EC50 (T. brucei Squib 427; Trypanosoma brucei, source data, read-out: T. brucei brucei EC50, single measurements): 49.9 µM
SI (MRC/T.b. brucei) (T. brucei Squib 427; selectivity index): 1.3
EC50 (T. brucei Squib 427; source data, read-out: T. brucei brucei EC50, single measurements): 47.2 µM
EC50 ([3]; Alamar blue cell viability assay, mean and SEM, read-out: T. b. rhodesiense EC50): > 64 µM
EC50 ([3]; source data, read-out: T. brucei rhodesiense EC50, single measurements): > 64 µM
EC50 ([4]; Trypanosoma brucei, mean and SEM, n = 3, read-out: ISMR1 EC50): 77.8 ± 1.7 µM
EC50 ([4]; Trypanosoma brucei, source data, read-out: ISMR1 EC50, single determinations): 77.3 µM
RF (ISMR1) [4, 10]: 0.81
EC50 ([4]; source data, read-out: ISMR1 EC50, single determinations): 81 µM and 75.1 µM
EC50 ([5]; Trypanosoma brucei, read-out: TbAT1-KO EC50, mean and SEM, n = 3): 43.7 ± 2.2 µM
EC50 ([5]; Trypanosoma brucei, read-out: TbAT1-KO EC50, single determinations, source data): 41.5 µM
EC50 ([5]; read-out: TbAT1-KO EC50, single determinations, source data): 45.9 µM and 46.9 µM
RF (TbAT1-KO) ([5]; resistance factor: ratio of EC50 of resistant and Lister 427WT): 0.45**
EC50 ([6]; Trypanosoma brucei, mean and SEM, n = 3, read-out: Lister 427 EC50): 96.4 ± 13.8 µM
EC50 ([6]; Trypanosoma brucei, source data, read-out: s427 EC50, single determinations): 82.6 µM
EC50 ([6]; source data, read-out: s427 EC50, single determinations): 97.4 µM

OC(Cn1cncn1)(Cn1cncn1)c1ccc(F)cc1F [Fluco, fluconazole, reference compound]
% parent compound remaining ([7]; CYP - NADPH, 15 min): 110%
% parent compound remaining ([7]; CYP - NADPH, 30 min): 80%
% parent compound remaining ([7]; CYP - NADPH, 60 min): 103%
% parent compound remaining ([7]; UGT Enzymes, 15 min): 103%
% parent compound remaining ([7]; UGT Enzymes, 30 min): 116%
% parent compound remaining ([7]; UGT Enzymes, 60 min): 106%
% parent compound remaining ([8]; CYP - NADPH, 15 min): 111±12%
% parent compound remaining ([8]; CYP - NADPH, 30 min): 93±19%
% parent compound remaining ([8]; CYP - NADPH, 60 min): 100±12%
% parent compound remaining ([8]; UGT Enzymes, 15 min): 99±19%
% parent compound remaining ([8]; UGT Enzymes, 30 min): 104±3%
% parent compound remaining ([8]; UGT Enzymes, 60 min): 100±6%
% parent compound remaining ([9]; CYP - NADPH, 15 min): 110%
% parent compound remaining ([9]; CYP - NADPH, 30 min): 104%
% parent compound remaining ([9]; CYP - NADPH, 60 min): 96%
% parent compound remaining ([9]; UGT Enzymes, 15 min): 111%
% parent compound remaining ([9]; UGT Enzymes, 30 min): 105%
% parent compound remaining ([9]; UGT Enzymes, 60 min): 112%

Nc1ncnc2c1ncn2[C@@H]1O[C@H](CO)[C@@H](O)[C@H]1O [Adenosine, reference compound]
Km (P1 transporter): 0.12 ± 0.02 µM
